Measured values from ChEMBL document CHEMBL3407472, “Multi-parameter optimization of aza-follow-ups to BI 207524, a thumb pocket 1 HCV NS5B polymerase inhibitor. Part 2: Impact of lipophilicity on promiscuity and in vivo toxicity” (Bioorg Med Chem Lett, 2015).

Columns and labels:
[1] = target: T1, Glucocorticoid receptor (Homo sapiens, UniProt P04150); test: Inhibition of glucocorticoid receptor (unknown origin)
T1 sequence (P04150 whole entry): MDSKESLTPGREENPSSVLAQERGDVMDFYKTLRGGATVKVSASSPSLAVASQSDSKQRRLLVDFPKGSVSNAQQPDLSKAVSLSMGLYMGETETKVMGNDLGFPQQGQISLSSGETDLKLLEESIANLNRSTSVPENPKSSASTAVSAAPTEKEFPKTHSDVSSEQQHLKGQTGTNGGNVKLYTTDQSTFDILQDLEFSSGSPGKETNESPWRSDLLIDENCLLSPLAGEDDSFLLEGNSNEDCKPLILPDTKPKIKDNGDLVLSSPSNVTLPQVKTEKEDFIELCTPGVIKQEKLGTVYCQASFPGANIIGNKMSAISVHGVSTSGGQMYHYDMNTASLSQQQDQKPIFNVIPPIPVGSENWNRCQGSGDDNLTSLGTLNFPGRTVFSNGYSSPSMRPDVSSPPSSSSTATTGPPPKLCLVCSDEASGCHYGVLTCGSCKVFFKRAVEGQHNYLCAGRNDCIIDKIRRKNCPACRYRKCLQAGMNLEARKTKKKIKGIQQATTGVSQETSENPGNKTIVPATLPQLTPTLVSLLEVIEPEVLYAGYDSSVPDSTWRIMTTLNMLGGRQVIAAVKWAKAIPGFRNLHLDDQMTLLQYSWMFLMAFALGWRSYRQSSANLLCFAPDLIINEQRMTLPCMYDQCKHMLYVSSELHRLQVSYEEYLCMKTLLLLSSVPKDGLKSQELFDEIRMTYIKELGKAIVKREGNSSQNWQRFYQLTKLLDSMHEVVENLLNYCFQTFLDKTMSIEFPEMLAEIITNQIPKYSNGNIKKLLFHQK

[2] = target: T2, Prostaglandin G/H synthase 2 (Homo sapiens, UniProt P35354); test: Inhibition of COX2 (unknown origin)
T2 sequence (P35354 whole entry): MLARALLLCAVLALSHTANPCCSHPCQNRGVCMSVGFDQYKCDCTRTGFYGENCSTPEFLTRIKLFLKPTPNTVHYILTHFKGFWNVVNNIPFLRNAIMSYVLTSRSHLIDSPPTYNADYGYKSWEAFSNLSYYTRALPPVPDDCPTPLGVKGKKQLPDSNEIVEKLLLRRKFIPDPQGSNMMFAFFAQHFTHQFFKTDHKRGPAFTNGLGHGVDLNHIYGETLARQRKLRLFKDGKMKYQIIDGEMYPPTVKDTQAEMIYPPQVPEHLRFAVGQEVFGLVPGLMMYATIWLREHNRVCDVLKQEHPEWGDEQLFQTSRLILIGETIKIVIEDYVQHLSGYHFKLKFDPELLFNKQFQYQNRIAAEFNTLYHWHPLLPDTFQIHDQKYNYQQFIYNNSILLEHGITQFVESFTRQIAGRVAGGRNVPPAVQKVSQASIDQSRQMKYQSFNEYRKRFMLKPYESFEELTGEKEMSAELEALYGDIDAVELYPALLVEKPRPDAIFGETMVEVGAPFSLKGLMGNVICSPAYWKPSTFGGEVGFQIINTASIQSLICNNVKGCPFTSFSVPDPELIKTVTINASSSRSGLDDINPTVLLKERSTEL

[3] = target: GABA-A receptor; agonist GABA site; test: Inhibition of GABAA receptor (unknown origin); type: protein-complex assay, Homo sapiens
[4] = target: T3, Cathepsin G (Homo sapiens, UniProt P08311); test: Inhibition of cathepsin G (unknown origin)
T3 sequence (P08311 whole entry): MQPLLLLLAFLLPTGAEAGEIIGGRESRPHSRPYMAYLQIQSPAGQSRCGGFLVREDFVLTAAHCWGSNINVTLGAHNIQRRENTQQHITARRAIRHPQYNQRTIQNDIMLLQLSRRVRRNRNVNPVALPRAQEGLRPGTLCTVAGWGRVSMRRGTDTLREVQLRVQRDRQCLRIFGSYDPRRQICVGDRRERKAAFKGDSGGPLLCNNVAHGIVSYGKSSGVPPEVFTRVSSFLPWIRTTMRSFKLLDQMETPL

[5] = target: D(1A) dopamine receptor (Homo sapiens, UniProt P21728); test: Inhibition of dopamine D1 receptor (unknown origin)
[6] = target: T4, Amine oxidase [flavin-containing] A (Homo sapiens, UniProt P21397); test: Inhibition of MAO-A (unknown origin)
T4 sequence (P21397 whole entry): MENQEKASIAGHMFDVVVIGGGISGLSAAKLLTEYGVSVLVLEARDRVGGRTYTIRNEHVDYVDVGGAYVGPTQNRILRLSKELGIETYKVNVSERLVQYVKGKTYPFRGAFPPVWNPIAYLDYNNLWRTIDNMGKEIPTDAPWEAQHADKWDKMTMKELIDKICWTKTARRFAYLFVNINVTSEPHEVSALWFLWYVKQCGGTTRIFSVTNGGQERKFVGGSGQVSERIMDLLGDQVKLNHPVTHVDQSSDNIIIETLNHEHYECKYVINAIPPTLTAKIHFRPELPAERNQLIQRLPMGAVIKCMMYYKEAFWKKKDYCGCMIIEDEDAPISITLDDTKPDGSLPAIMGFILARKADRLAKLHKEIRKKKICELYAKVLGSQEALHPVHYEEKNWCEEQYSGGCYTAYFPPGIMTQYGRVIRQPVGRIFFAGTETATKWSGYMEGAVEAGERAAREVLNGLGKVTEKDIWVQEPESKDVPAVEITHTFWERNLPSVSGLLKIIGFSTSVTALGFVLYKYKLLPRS

[7] = target: T5, Alpha-2A adrenergic receptor (Homo sapiens, UniProt P08913); test: Inhibition of alpha2A adrenergic receptor (unknown origin)
T5 sequence (P08913 whole entry): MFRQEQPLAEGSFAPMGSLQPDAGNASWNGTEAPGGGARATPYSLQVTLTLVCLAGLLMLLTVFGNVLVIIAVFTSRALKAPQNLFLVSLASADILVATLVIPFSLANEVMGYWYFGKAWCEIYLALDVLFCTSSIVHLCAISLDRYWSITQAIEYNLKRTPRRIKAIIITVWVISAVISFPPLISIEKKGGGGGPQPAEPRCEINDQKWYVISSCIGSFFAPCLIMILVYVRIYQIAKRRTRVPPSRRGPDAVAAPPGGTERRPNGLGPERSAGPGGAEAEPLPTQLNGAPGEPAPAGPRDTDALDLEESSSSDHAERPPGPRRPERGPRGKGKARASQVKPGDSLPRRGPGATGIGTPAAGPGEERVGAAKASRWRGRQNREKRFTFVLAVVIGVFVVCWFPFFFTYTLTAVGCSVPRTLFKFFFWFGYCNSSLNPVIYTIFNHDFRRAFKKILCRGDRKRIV

[8] = target: T6, Polyunsaturated fatty acid 5-lipoxygenase (Homo sapiens, UniProt P09917); test: Inhibition of 5-LO (unknown origin)
T6 sequence (P09917 whole entry): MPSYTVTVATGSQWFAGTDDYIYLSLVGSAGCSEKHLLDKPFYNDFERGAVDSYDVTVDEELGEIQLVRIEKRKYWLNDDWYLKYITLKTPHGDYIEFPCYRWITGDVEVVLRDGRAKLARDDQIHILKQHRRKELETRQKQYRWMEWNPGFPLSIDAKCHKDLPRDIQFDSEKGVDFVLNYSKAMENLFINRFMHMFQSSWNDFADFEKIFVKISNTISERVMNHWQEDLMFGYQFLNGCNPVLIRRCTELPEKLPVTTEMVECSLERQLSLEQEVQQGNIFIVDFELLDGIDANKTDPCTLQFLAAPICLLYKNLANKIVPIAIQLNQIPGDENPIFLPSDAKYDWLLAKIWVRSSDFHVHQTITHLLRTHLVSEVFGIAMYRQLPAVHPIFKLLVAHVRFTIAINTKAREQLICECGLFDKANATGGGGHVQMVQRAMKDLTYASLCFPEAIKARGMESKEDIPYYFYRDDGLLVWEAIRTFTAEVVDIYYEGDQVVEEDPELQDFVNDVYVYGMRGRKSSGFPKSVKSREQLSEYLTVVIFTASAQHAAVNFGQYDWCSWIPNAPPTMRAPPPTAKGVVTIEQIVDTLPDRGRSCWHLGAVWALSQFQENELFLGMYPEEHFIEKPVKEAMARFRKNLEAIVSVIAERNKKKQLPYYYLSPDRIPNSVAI

Sequence of D(1A) dopamine receptor (P21728 whole entry): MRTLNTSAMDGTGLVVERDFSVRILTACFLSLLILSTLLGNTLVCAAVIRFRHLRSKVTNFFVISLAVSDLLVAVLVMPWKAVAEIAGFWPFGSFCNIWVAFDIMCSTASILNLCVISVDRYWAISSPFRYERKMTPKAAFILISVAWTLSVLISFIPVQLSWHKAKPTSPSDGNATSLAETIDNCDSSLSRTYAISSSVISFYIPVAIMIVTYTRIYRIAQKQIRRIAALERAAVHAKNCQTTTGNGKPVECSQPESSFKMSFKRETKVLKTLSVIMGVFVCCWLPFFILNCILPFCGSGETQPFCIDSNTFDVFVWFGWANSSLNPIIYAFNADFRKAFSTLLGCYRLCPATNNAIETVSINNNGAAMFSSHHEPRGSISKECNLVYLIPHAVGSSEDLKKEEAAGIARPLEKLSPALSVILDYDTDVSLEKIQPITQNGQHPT

IC50 [1]: < 10 µM
IC50 [2]: < 10 µM
IC50 [3]: < 10 µM
IC50 [4]: < 10 µM
IC50 [5]: < 10 µM
IC50 [6]: < 10 µM
IC50 [7]: < 10 µM
IC50 [8]: < 10 µM
SMILES: Cn1c(-c2ccccn2)c(C2CCCC2)c2ccc(C(=O)NC3(C(=O)Nc4ccc(/C=C/C(=O)O)cc4)CCC3)cc21 [BILB-1941]
